Here are results for seven molecules from US20250270255A1, “CASPASE-2 INHIBITOR COMPOUNDS” (KINTSUGI THERAPEUTICS S.L., priority 2021, published 2025).

Read-outs that look alike come from different tables or passages of the source. Where a SMILES comes first, the peptide text is derived from it. The star is where a group is joined. AspCH2OBz(2,6-Me2) = Cc1cccc(C)c1C(=O)OCC(=O)[C@H](CC(=O)O)N*

The target in experiment [1] is T1, caspase-3 (Homo sapiens, UniProt P42574).
T1 construct: made in house
T1 sequence (P42574 29-175 limits assumed): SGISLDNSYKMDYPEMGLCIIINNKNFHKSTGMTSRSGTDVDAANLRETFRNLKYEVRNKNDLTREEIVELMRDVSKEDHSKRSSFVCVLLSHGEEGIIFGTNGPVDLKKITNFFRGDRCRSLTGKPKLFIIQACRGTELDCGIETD
T1 sequence (P42574 176-277 limits assumed): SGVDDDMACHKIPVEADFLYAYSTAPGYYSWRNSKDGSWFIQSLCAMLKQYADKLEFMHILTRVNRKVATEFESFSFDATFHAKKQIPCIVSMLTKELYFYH
As to the kind of experiment: Determination of Ki and IC50 inhibition parameters. The format is biochemical. As to conditions: for Ki: Morrison equation, 15 min pre-incubation with inhibitor at 37 C. The procedure: (§1) The detailed protocol for the expression and purification of human apoptotic caspases can be found elsewhere (Stennicke, 1999).
(§2) The measurement of Ki and IC50 inhibition parameter of synthesized inhibitors towards caspases-2, -3, and -8 was performed using a fMax spectrofluorimeter (Molecular Devices, Sunnyvale, CA, USA) operating in fluorescence kinetic mode in 96-well Corning (Corning, NY, USA) plates. Before kinetic analysis, all caspases were active site-titrated using the zVAD-fmk inhibitor (Cayman Chemical Company, Cat No. 14467). The caspases assay buffer was 10% w/v sucrose, […], 20 mM Pipes, 10 mM NaCl, 1 mM EDTA, and 10 mM DTT (pH=7.3). Buffers were prepared at room temperature, and all kinetic assays were performed at 37° C. The Ki parameter was measured using the Morrison equation (Copeland, 2000). For each caspase, an appropriate ACC-fluorogenic substrate was used to monitor substrate hydrolysis: NH-Idc-hGlu-Thr(Bzl)-Ser-Asp-ACC (50 uM) for caspase-2, Ac-DEVD-ACC (100 uM) for caspase-3 and Ac-LEHD-ACC (100 uM) for caspase-8. The ACC fluorescence was monitored using 355 nm (excitation) and 460 nm (emission) wavelengths. To meet the criteria for reversible inhibitor kinetics, the lowest inhibitor concentration was at least 4-fold higher that the caspase concentration in the assay. The caspase (60 uL) was first pre-warmed in the assay buffer in the 96-well plate for 15 min at 37 C and then pre-incubated with the inhibitor (20 uL) for another 15 min at 37 C. Next, the substrate (20 uL) was added to the enzyme-inhibitor mixture and the progress of reaction (ACC release) was monitored over time. The Ki parameter was calculated from Morrison equation, and the IC50 parameter was calculated using the formula: IC50=Ki×(1+[S]/Km], where the [S] is substrate concentration used in the assay and Km is a Michaelis-Menten constant for a substrate. All the measurements were performed at least three times and the data was analyzed using GraphPad Prism 7 software.

In experiment [2] the target is T2, caspase-8 (Homo sapiens, UniProt Q14790).
T2 construct: made in house
Briefly: Determination of Ki and IC50 inhibition parameters. As to conditions: for Ki: Morrison equation, 15 min pre-incubation with inhibitor at 37 C. The format is biochemical.

Another experiment deals with HepG2 cells. Briefly: Intracellular lipid accumulation, in vitro cellular model of NASH. It is filed as cell-based. Also on record: inhibition of intracellular lipid-accumulation: dose or concentration left out as unconfirmed. Conditions: for inhibition of intracellular lipid-accumulation: NASH-triggered HepG2 cultures, FIG. 4. The procedure:
HepG2 cells (50.000 cells/well) were plated into 12-multiwell culture dishes on coverslips previously coated with collagen (2 mg/mL collagen solution (BD Biosciences) in PBS incubated at 37° C. for 30 min).
Cells were treated with a “NASH cocktail”: DMEM containing 4.5 mg/mL glucose supplemented with 10% (v/v) FBS, 1% (v/v) PenStrep and 2 mM L-glutamine plus fatty acids (100 μM sodium oleate and 100 μM palmitic acid), 100 nM insulin (all Sigma-Aldrich) and inflammatory cytokines (50 ng/ml tumor necrosis factor, TNF-α (Prospec), 25 ng/ml interleukin IL-1β (Petroteck) and 8 ng/ml transforming growth factor, TGF-β (R&D Systems)). The cells were exposed for 24h to this “NASH cocktail” and KIN compounds were concomitantly added at different concentrations.
At the end of treatments cells were washed with PBS and incubated with staining solution (BODIPY493/503 (Thermo Fisher Scientific) for 15 min at 37° C. Then cells were washed three times with PBS and were fixed in 4% PFA for 30 min at room temperature. After three additional washes with PBS, coverslips were mounted onto glass slides with a drop of Prolong® Gold antifade reagent (Invitrogen) with DAPI overnight at room temperature. Fluorescence micrographs were taken using an Axoimagen M1 microscope (Zeiss, Oberkochen, Germany) and fluorescent signals (DAPI and BODIPY) were quantified using ImageJ (n=10). The intracellular lipid load was calculated as a function of BODIPY™ 493/503 lipid dye area.
An in vitro cellular model of NASH was used to test the efficacy of caspase-2 inhibitors preventing intracellular accumulation of lipids. In this model, HepG2 cells are exposed for 24 h to “NASH conditions” including lipogenic (glucose, insulin, fatty acids) and inflammatory and pro-apoptotic (TNF-α, IL-1β, and TGF-β) triggers. […] This model has shown to correlate with human NASH pathology (Boeckmans et al. 2019).

Experiment [3] has as its target T3, caspase-2 (Homo sapiens, UniProt P42575).
T3 sequence (P42575 170-325 limits assumed): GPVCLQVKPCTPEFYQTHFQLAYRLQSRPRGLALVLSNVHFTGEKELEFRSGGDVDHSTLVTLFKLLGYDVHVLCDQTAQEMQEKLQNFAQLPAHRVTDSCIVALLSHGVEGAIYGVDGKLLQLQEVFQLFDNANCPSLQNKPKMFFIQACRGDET
T3 sequence (P42575 348-452 limits assumed): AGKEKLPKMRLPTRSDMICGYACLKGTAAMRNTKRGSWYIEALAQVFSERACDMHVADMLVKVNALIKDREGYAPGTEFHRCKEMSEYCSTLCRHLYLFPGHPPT
As to the kind of experiment: Determination of Ki and IC50 inhibition parameters. Conditions: for Ki: Morrison equation, 15 min pre-incubation with inhibitor at 37 C; for IC50: calculated as IC50=Ki×(1+[S]/Km), substrate NH-Idc-hGlu-Thr(Bzl)-Ser-Asp-ACC 50 uM. Also noted: made in house. The format is biochemical. The procedure: as §1, §2

In experiment [4] the target is T3, caspase-2. As to conditions: state of the art; cited from earlier work.
In experiment [5] the target is T3, caspase-2. Conditions: Poreba et al. (2019); cited from earlier work.
For experiment [6], the target named is T1, caspase-3. Briefly: Determination of kobs/I inhibition parameter. The format is biochemical. As to conditions: pH 7.3; pseudo-first-order conditions; substrate Ac-DEVD-ACC 100 uM; 37° C. The procedure: (§3) The measurement of kobs/l inhibition parameter (second order rate of enzyme inhibition) of synthesized inhibitors towards caspases-2, -3, and -8 was performed using a fMax spectrofluorimeter (Molecular Devices, Sunnyvale, CA, USA) operating in fluorescence kinetic mode in 96-well Corning (Corning, NY, USA) plates. Before kinetic analysis, all caspases were active site-titrated using the zVAD-fmk inhibitor (Cayman Chemical Company, Cat No. 14467). The caspases assay buffer was 10% w/v sucrose, […], 20 mM Pipes, 10 mM NaCl, 1 mM EDTA, and 10 mM DTT (pH=7.3). Buffers were prepared at room temperature, and all kinetic assays were performed at 37° C. The kobs/l parameter was measured under pseudo-first-order kinetic conditions ([I]>>[E]). […] The ACC fluorescence was monitored using 355 nm (excitation) and 460 nm (emission) wavelengths. […] At the same time in a separate tube, the caspase was preincubated in assay buffer at 37 C, and after 15 min, the enzyme was added to wells (60 uL per well, total reaction volume 100 uL) and the fluorescence was monitored for 30 min, starting immediately. Second-order rate of inhibition (Kobs/l) was determined in at least three independent experiments and presented as an average value. […]

Experiment [7] addresses T2, caspase-8. As to the kind of experiment: Determination of kobs/I inhibition parameter. As to conditions: pH 7.3; pseudo-first-order conditions; substrate Ac-LEHD-ACC 100 uM; 37° C. It is filed as biochemical. The procedure:
as §3

The target in experiment [8] is T3, caspase-2. As to the kind of experiment: Determination of kobs/I inhibition parameter. Conditions: pH 7.3; pseudo-first-order conditions; substrate NH-Idc-hGlu-Thr(Bzl)-Ser-Asp-ACC 50 uM; 37° C. It is filed as biochemical. Also noted: made in house. The procedure:
as §3

In experiment [9] the target is T3, caspase-2. Briefly: Kinetic assay of substrates NH-Idc-P4-P3-Dab-Asp-ACC (Example 4). It is filed as biochemical. Conditions: substrate 10 μM; caspase-2 10 nM; 37° C. The procedure:
Prior to kinetic assay, substrates (several L) were diluted in DMSO to the […] (working concentration). Next, 1 μL of such substrate was spot into the well of 96-well plate following by the addition of […] of caspase-2 in buffer. Immediately after the enzyme was added, the plate was placed in fluorescence plate reader and the fluorescence was measured over the time in a kinetic mode (excitation 355 nm, emission 460 nm). The liberation of fluorescence was carried out for 30 minutes, and only linear portion of the plot was taken for analysis to calculate the rate of the reaction. The rate of best cleaved substrate was set to 100% and all other substrates were adjusted accordingly (cleavage rate, %). The final concentration of substrate was 10 μM, and the final concentration of caspase-2 was 10 nM. The caspase-2 assay buffer was 20 mM Pipes, 100 mM NaCl, sucrose 10% (w/v), 10 mM DTT, pH 7.2-7.4. The caspase-2 was preincubated in buffer at 37° C. for 15 min before added to the substrate.

Setting [10] is: calculated as IC50=Ki×(1+[S]/Km), substrate Ac-DEVD-ACC 100 uM.
Where [11] appears, read: calculated as IC50=Ki×(1+[S]/Km), substrate Ac-LEHD-ACC 100 uM.

By Ki is commonly meant a measure of affinity in units of concentration, obtained from inhibition or displacement. For orientation: IC50 means the point on the concentration scale where inhibition reaches its midpoint. One may read the kinact/KI as the second-order rate constant of inactivation.

T2 sequence (Q14790 217-374 limits assumed): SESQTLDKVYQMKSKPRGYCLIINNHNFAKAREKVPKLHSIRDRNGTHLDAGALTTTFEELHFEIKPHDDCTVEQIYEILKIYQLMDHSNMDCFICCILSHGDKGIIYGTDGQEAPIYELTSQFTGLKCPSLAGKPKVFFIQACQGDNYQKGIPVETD
T2 sequence (Q14790 385-479 limits assumed): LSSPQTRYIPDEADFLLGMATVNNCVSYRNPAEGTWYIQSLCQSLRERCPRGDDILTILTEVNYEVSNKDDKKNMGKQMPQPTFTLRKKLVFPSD

As for “NH-Idc-hGlu-Thr(Bzl)-Orn-Asp-AOMK [Compound 3]”, the Ki turned out to be 13.8 nM on caspase-3 [1], 43.3 nM on caspase-8 [2] and 0.7 nM on caspase-2 [3]. Moreover, the figures for the 50% inhibitory concentration (IC50) on caspase-3 [1] (setting [10]), on caspase-8 [2] (setting [11]) and on caspase-2 [3] were 91 nM, 320 nM and 7.4 nM, respectively. Moreover, the “inhibition of intracellular lipid-accumulation” value (from here on “inhibition”) in the experiment with HepG2 cells is on record as “significantly higher percentage of inhibition than NH-23-C2 compound”.
Regarding Ac-VDVAD-aldehyde, the “potency against caspase-3 compared with caspase-2” value at caspase-2 [4] is reported as “more potent against caspase-3 than to caspase-2”.
With “NH-Idc-hGlu-Thr(Bzl)-Ser-Asp-AOMK [reference compound]”, the Ki at caspase-3 [1] was 1.1 nM; at caspase-8 [2], 6.2 nM; on caspase-2 [3], 0.7 nM. Moreover, the 50% inhibitory concentration (IC50) on caspase-3 [1] (setting [10]) is 7.1 nM; on caspase-8 [2] (setting [11]), 46.2 nM; on caspase-2 [3], 7.9 nM. Moreover, the Caspase-2 inhibitory activity result at caspase-2 [5] is reported as “highest Caspase-2 inhibitory activity among the assayed compounds”. Also, the “selectivity for Caspase-3” value on caspase-2 [5] was “no selectivity for Caspase-3”. Besides, the “selectivity for Caspase-8” value at caspase-2 [5] is listed as “limited selectivity for Caspase-8”.
On to “NH-Idc-hGlu-Thr(Bzl)-Dab-Asp-AOMK [Compound 2]”, for which the figures for the Ki at caspase-3 [1], on caspase-8 [2] and at caspase-2 [3] were 29.3 nM, 209 nM and 1.1 nM, respectively. Further, the figures for the 50% inhibitory concentration (IC50) at caspase-3 [1] (setting [10]), on caspase-8 [2] (setting [11]) and on caspase-2 [3] were 193 nM, 1540 nM and 12 nM, respectively. Besides, the “inhibition” value in the experiment with HepG2 cells is reported as “significantly higher percentage of inhibition than NH-23-C2 compound”.
Turning to `CC(=O)N[C@H](C(=O)N[C@@H](CC(=O)O)C(=O)N[C@H](C(=O)N[C@@H](C)C(=O)N[C@@H](CC(=O)O)C(=O)COC(=O)c1c(C)cccc1C)C(C)C)C(C)C` [Ac-Val-Asp-Val-Ala-Asp-AOMK, reference compound] (Ac-VDVA-{AspCH2OBz(2,6-Me2)}), the figures for the kinact/KI on caspase-3 [6], at caspase-8 [7] and at caspase-2 [8] were 1.36e+06 M⁻¹ s⁻¹, 98.4 M⁻¹ s⁻¹ and 643 M⁻¹ s⁻¹, respectively. The IC50 against caspase-3 [1] was 0.1 nM; on caspase-8 [2], 16 nM; on caspase-2 [3] it was 4.9 nM. Further, the Ki on caspase-8 [2] is 2.2 nM; on caspase-2 [3] it was 0.4 nM.
Consider “NH-Idc-hGlu-Thr(Bzl)-Lys-Asp-AOMK [Compound 1]”, for which the Ki at caspase-3 [1] was 3.8 nM; on caspase-8 [2], 6.7 nM; at caspase-2 [3], 0.8 nM. Moreover, the IC50 at caspase-3 [1] (setting [10]) is 24.8 nM; on caspase-8 [2] (setting [11]), 49.8 nM; on caspase-2 [3], 8.8 nM. Besides, the “efficacy inhibiting intracellular lipid accumulation” value in the experiment with HepG2 cells (HepG2 under NASH conditions, inhibitors at 10, 20 and […], FIG. 5) is given as “better efficacy than NH-23-C2”. For the same molecule, the “inhibition” value with HepG2 cells was “significantly higher percentage of inhibition than NH-23-C2 compound”.
Consider NH-Idc-hLeu-Thr(Bzl)-Dab-Asc-ACC, for which the “RFU/s, %, average (cleavage rate, best substrate set to 100%)” value on caspase-2 [9] was 0.0%.
